Results as given in patent US4225619A, “Substituted fluoracylresorcinols” (Boehringer Ingelheim GmBH, priority 1976, dated 1980).
Values after ≈ are worked out from the molar mass of the structure shown.

Columns and labels:
Format in all cases: cell-based
[1] = tested on: Staphylococcus aureus SG 511; test: Serial dilution test; settings: for MIC: Staphylococcus aureus, SG511, 18-20 hours at 37° C., read-out: MIC, S.D.T., Staphylococcus aureus SG 511
Description: (§1) The inhibitory effect on bacteria and fungi was examined by the serial dilution test and the agar diffusion test (hole-test). As bacteria were used: Staphylococcus aureus SG 511, Streptococcus Aronson, Streptococcus pyogenes At CC 86 68; as fungi: Candida albicans AT CC 10231, Trichophyton mentagrophytes AT CC 9129 and Aspergillus niger.
1. Meat extract broth: for St. aureus SG 511
(§2) The age of the primary cultures is 24 hours for bacteria and 14 days for fungi. The standardization of the suspension of microorganisms is effected using a photometer according to Eppendorf (test tube .phi.14 mm, filter 546 nm) and a suspension for comparison consisting of barium sulfate, this suspension being created by adition of 3.0 ml of 1% barium chloride solution to 97 ml of 1% sulfuric acid. After the standardization the bacteria were further diluted to a concentration of 1:1000 by means of sodium chloride solution, the fungi were used in an undiluted state.
(§3) 40 mgm of the substance were put into a 10 ml measuring flask and filled up to the mark with the solvent (corresponds to a dilution of 1:250=4000 μg/ml). The further dilution series was standardized with distilled water or the respective solvent and the following substance concentrations were prepared: 1000; 250; 62.5 μg/ml.
(§4) The tubes were filled with 4.9 ml of the corresponding liquid nutrient medium. Then 0.1 ml of the substance dilution prepared above was added to each tube, so that the mentioned final concentrations were present. Finally each tube was inoculated with 0.1 ml of the standardized suspension of microorganisms. Control tests merely using the solvent are to be carried out simultaneously.
(§5) Bacteria were incubated at 37° C. for 18-20 hours and fungi at 27° C. for 7 days.
(§6) The measurement is carried out macroscopically defining the minimal inhibitory concentration (the lowest still microbiostatically effective concentration).

Streptococcus Aronson [2] = test: Agar diffusion test (hole-test); settings: 18-20 hours at 37° C., read-out: MIC, A.D.T., Streptococcus Aronson
Description: as §1
(§7) 2. Glucose agar: for Sc. Aronson and St. pyogenes Recipe see meat extract agar. After sterilization 1 weight percent of glucose is added as a sterile 50% solution.
as §2, with “addition” for “adition”, “St. aureus SG 511 was” for “the bacteria were further”, “diluted” for “diluted to a concentration of”, “1:1000 and Sc. pyogenes and Aronson 1:100” for “1:1000”, “solution. The” for “solution, the”
(§8) 40 mgm of the substance were put into a 10 ml measuring flask and filled up to the mark with the solvent (corresponds to a dilution of 1:250=4000 μg/ml).
(§9) The dilutions to the concentrations under test were effected with distilled water or the respective solvent.
(§10) 19 ml of the nutrient medium were filled into sterile Petri dishes of a diameter of 8 cm and dried. Subsequently the agar plates were charged with 4 ml of seed agar. 100 ml of seed agar contain 1.25 ml of the suspension of microorganisms, an agar plate thus containing 0.05 ml of the suspension of microorganisms. After solidification of the agar, 5 holes of a diameter of 5 mm were punched into the plates and filled with 0.05 ml of the correspondingly concentrated substance solution.
(§11) Control tests merely using the solvent are to be carried out simultaneously.
as §5
(§12) The diameter of the area of inhibition in mm was measured after having deducted the diameter of the hole.

[3] = tested on: Streptococcus pyogenes At CC 86 68; test: Agar diffusion test (hole-test); settings: ATCC8668, 18-20 hours at 37° C., read-out: MIC, A.D.T., Streptococcus pyogenes
Description: as §1, §7
as §2, with “addition” for “adition”, “St. aureus SG 511 was” for “the bacteria were further”, “diluted” for “diluted to a concentration of”, “1:1000 and Sc. pyogenes and Aronson 1:100” for “1:1000”, “solution. The” for “solution, the”
as §8, §9, §10, §11, §5, §12

Corynebacterium acnes = test: Serial dilution test for Corynebacterium acnes; settings: for MIC: Cutibacterium acnes, 37° C. for 48 hours, read-out: MIC, S.D.T., Corynebacterium acnes
Description: Serial dilution test for Corynebacterium acnes and Pityrosporum ovale Nutrient medium
For Corynebacterium acnes: thioglycolate-broth for Pityrosporum ovale: Littmann's broth, 5 ml per tube.
Suspension of microorganisms in 0.9% sodium chloride solution, standardized using a photometer according to Eppendorf by means of a suspension for comparison consisting of barium sulfate, for Corynebacterium acnes in a dilution of 1:100, for Pityrosporum ovale in an undiluted state. 0.1 ml of the suspensions was used per test tube. Dimethyl sulfoxide served as a solvent for the substances.
The suspension with Corynebacteria acnes was incubated at 37° C. for 48 hours, the suspension of Pityrosporum ovale at 27° C. for 7 days. The reading was effected by macroscopic evaluation of the growth of microorganisms and registration of the minimal inhibitory concentration.

HeLa-cell culture = test: Inhibition of HeLa cell cultures; settings: Homo sapiens, 72 h, 37° C. for 3 days, 5% carbon dioxide; for IC50: read-out: ED50, HeLa cell culture; for minimal effective concentration: read-out: Minimal inhibitory concentration, HeLa cell culture
Description: Measurement of the inhibition of cell cultures
HeLa-cell culture was treated with trypsin and adjusted to a cell number of 150,000 cells/ml of fresh medium. The substance was always dissolved in the same quantity of dimethyl sulfoxide and then further diluted with growth medium. 0.1 ml of the substance-dilutions were added to each well of microtiter plates and then 0.2 ml of cell suspension were added (4 wells per dilution). Several growth controls containing 0.1 ml of growth medium instead of 0.1 ml of substance dilution were put up. After careful mixing, the cultures were incubated at 37° C. for 3 days in a 5% carbon dioxide atmosphere. The reading was effected in comparison with these controls. The results were given as the percentage of the deficiency and degeneration compared to the growth control. […] The statements are referred to μg of substance per ml of total medium.

Streptococcus Aronson [4] = test: Serial dilution test; settings: Streptococcus, 18-20 hours at 37° C., read-out: MIC, S.D.T., Streptococcus Aronson
Description: as §1
(§13) 2. Glucose broth: for Sc. Aronson and St. pyogenes Recipe see meat extract broth. After sterilization 1 weight percent of glucose is added as a sterile 50% solution.
as §2, §3, §4, §5, §6

[5] = tested on: Streptococcus pyogenes At CC 86 68; test: Serial dilution test; settings: for MIC: Streptococcus pyogenes, ATCC8668, 18-20 hours at 37° C., read-out: MIC, S.D.T., Streptococcus pyogenes
Description: as §1, §13, §2, §3, §4, §5, §6

[6] = tested on: Staphylococcus aureus SG 511; test: Agar diffusion test (hole-test); settings: SG511, 18-20 hours at 37° C., read-out: MIC, A.D.T., Staphylococcus aureus SG 511
Description: as §1
1. Meat extract agar: for St. aureus SG 511
as §2, with “addition” for “adition”, “St. aureus SG 511 was” for “the bacteria were further”, “diluted” for “diluted to a concentration of”, “1:1000 and Sc. pyogenes and Aronson 1:100” for “1:1000”, “solution. The” for “solution, the”
as §8, §9, §10, §11, §5, §12

[7] = reduced growth at this concentration

Compound	MIC [1] [µg/mL]	MIC (Streptococcus Aronson [2]) [µg/mL]	MIC [3] [µg/mL]	MIC (Corynebacterium acnes) [µg/mL]	IC50 (HeLa-cell culture) [µg/mL]	minimal effective concentration (HeLa-cell culture) [µg/mL]	MIC (Streptococcus Aronson [4]) [µg/mL]	MIC [5] [µg/mL]	MIC [6] [µg/mL]	Concentration with reduced growth (value in brackets), S.D.T., Staphylococcus aureus SG 511 [1, 7] [µg/mL]	Concentration with reduced growth (value in brackets), S.D.T., Streptococcus pyogenes [5, 7] [µg/mL]	Concentration with reduced growth (value in brackets), S.D.T., Corynebacterium acnes (Corynebacterium acnes; [7]) [µg/mL]
CC(C)CCc1cc(C(=O)C(F)(F)F)c(O)cc1O [G, 2,4-Dihydroxy-5-iso-pentyl-trifluoroacetophenone]	0.31 (≈ 1.12 µM)	≤ 15.6	≤ 15.6	1.25 (≈ 4.52 µM)	5.8 (≈ 21 µM)	0.78	1.25 (≈ 4.52 µM)	0.31 (≈ 1.12 µM)	≤ 15.6	–	–	–
CC1CC(C)CC(c2cc(C(=O)C(F)(F)F)c(O)cc2O)C1 (stereo not drawn) [I, 2,4-Dihydroxy-5-(3',5'-dimethyl)-cyclohexyl-tri-fluoroacetophenone]	0.31 (≈ 0.98 µM)	≤ 15.6	≤ 15.6	0.08 (≈ 0.253 µM)	–	–	0.08 (≈ 0.253 µM)	0.31 (≈ 0.98 µM)	≤ 15.6	–	–	–
CCCCCCCCCc1cc(C(=O)C(F)(F)F)c(O)cc1O [J, 2,4-Dihydroxy-5-n-nonyl-trifluoroacetophenone]	5 (≈ 15 µM)	≤ 15.6	≤ 15.6	0.02 (≈ 0.0602 µM)	–	–	5 (≈ 15 µM)	1.25 (≈ 3.76 µM)	≤ 15.6	1.25	0.08	–
CCCCC(C)c1c(O)ccc(C(=O)C(F)(F)F)c1O (stereo not drawn) [K]	1.25 (≈ 4.31 µM)	≤ 15.6	≤ 15.6	0.08 (≈ 0.276 µM)	2.27 (≈ 7.82 µM)	0.78	1.25 (≈ 4.31 µM)	0.31 (≈ 1.07 µM)	≤ 15.6	–	–	–
O=C(c1ccc(O)c(C2CCCCCCCCCCC2)c1O)C(F)(F)F [L, 2,4-Dihydroxy-3-cyclododecyl-trifluoroacetophenone]	0.31 (≈ 0.832 µM)	≤ 15.6	62.5 (≈ 168 µM)	1.25 (≈ 3.36 µM)	–	–	0.31 (≈ 0.832 µM)	0.08 (≈ 0.215 µM)	62.5 (≈ 168 µM)	–	–	0.31
